Laboratory results taken from US12234205B1, “Sulfonylhydrazide derivatives as anticancer agents” (KING SAUD UNIVERSITY, priority 2024, dated 2025).

How the values were obtained:
A549 NSCLC cell line = test: Inhibition of A549 NSCLC cell line (sulforhodamine B assay, 72 h); format: cell-based; conditions: Homo sapiens, SRB assay, 72 hours exposure
Description: (§1) IC50 is the concentration at which 50% of the cells were inhibited after treatment with a target compound. SEM is the standard error of means.
Inhibition of A549 NSCLS (Non-Small Cells Lung Cancer) Cell Line
A549 cell lines were obtained from the National Cancer Institute (Cairo, Egypt) and maintained in Roswell Park Memorial Institute medium (RPMI1640) (Invitrogen, Carlsbad, CA, USA) supplemented with […] of streptomycin, 100 units/mL of penicillin and 10% of heat-inactivated fetal bovine serum (Invitrogen) in a humidified, 5% (v/v) CO2 atmosphere at 37° C. The sulforhodamine B (SRB) assays were performed according to Skehan et al 20, 21. Briefly, exponentially growing cells were trypsinized, counted and seeded at the appropriate densities (5000 cells/100 μL/well) into 96-well microtiter plates. Cells were incubated in a humidified atmosphere at 37° C. for 24 h. Then, the cells were exposed to different compounds at the desired concentrations, (0.01, 0.03, 0.1, 0.3, 1, 3, 10, 30 and 100 μM) or to 1% dimethyl sulfoxide (DMSO) for 72 hours. At the end of the treatment period, the media were removed, and the cells were fixed with 10% trichloroacetic acid at 4° C. for 1 h. The cells then were washed with tap water four times and incubated with SRB 0.4% for 30 min. Excess dye was removed by washing repeatedly with 1% (vol/vol) acetic acid. The protein-bound dye was dissolved in 10 mM Tris base solution for OD determination at 510 nm using a SpectraMax plus Microplate Reader (Molecular Devices, CA). Cell viability was expressed relative to the untreated control cells. Statistical analyses were performed using legally licensed GraphPad Prism™ and Instat™ software (GraphPad Inc., La Jolla, CA, USA).

hFAAH = molecular target: T1, hFAAH (Homo sapiens, UniProt O00519); test: Inhibition of FAAH activity (Cayman FAAH inhibitor screening assay kit, AMC-arachidonoyl amide hydrolysis, fluorescence); format: biochemical; conditions: 30 min preincubation; for inhibition at 10 µM: 10 μM compound, 37° C., triplicate; for IC50: only compounds with more than 50% inhibition at 10 μM
T1 construct: purchased Cayman Chemicals 10005196
T1 sequence (O00519 1-579): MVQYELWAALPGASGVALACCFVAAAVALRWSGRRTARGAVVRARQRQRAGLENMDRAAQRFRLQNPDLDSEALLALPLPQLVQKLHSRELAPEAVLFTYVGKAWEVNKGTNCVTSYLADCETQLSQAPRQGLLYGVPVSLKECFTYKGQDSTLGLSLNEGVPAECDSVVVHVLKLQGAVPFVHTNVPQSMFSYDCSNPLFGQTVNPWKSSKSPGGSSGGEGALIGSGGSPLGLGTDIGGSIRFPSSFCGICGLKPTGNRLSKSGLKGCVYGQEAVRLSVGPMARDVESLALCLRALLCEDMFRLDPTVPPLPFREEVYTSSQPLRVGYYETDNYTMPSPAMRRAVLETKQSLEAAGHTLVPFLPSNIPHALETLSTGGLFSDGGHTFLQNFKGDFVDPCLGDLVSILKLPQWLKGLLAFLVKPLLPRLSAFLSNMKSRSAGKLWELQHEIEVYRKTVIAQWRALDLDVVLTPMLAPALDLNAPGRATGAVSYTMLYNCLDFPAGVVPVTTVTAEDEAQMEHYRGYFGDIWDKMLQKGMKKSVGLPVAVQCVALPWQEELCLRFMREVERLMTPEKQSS
Description: Inhibition of FAAH Activity
Assay was performed using kits (#10005196) purchased from Cayman Chemicals (Anne Arbor, MI, USA). Ibuprofen was acquired as a generous gift from Tabuk Pharmaceuticals (Tabuk, SA). Doxorubicin was purchased from Sigma (St. Luis, MI, USA). Assay was performed using the FAAH inhibitor screening assay kit from Cayman Chemicals according to the manufacturer's protocol. Release of the fluorescent product, 7-amino-4-methylcoumarin (AMC), from the hydrolysis of AMC-arachidonoyl amide, mediated by FAAH at 37° C., was recorded using a plate reader with an excitation filter of 340-360 nm and an emission filter of 450-465 nm. Inhibitors were preincubated for 30 min at indicated concentrations with the enzyme prior to the addition of substrate to initiate the reaction. Change in fluorescence with time was taken as enzyme activity and the extent of inhibition was calculated from the initial rates. Final DMSO concentration was kept at 2% (v/v) in the assay. Each concentration was repeated three times (Triplicate) to conform to statistical accuracy. Percentage of inhibition at 10 μM was measured for all compounds. Compounds which were able to inhibit the enzyme activity more than 50% at 10 μM were considered eligible for IC50 calculations. For IC50, the inhibition assay was performed at 1.0, 0.1, 0.01, 0.001 and 0.0001 μM concentration of compound under assay. The hFAAH inhibition was calculated as compared to activity observed with vehicle. IC50 values were calculated using Prism v.7.02 for each column separately (singlet concentration). The compound's IC50 was calculated using InStat v.3 software (GraphPad Software, San Diego, CA) which was also used for calculation of standard error of means (SEM). Referring to FIG. 1, inhibition of hFAAH by compound 10 is shown.
as §1

SMILES	IC50 (A549 NSCLC cell line) [µM]	inhibition at 10 µM (hFAAH) [%]	IC50 (hFAAH) [µM]
CC(C)Cc1ccc(C(C)C(=O)NNS(=O)(=O)c2ccccc2[N+](=O)[O-])cc1 (stereo not drawn) [Compound 3, N′-(2-(4-isobutylphenyl)propanoyl)-2-nitrobenzenesulfonohydrazide]	55.6	45.5	
CC(C)Cc1ccc(C(C)C(=O)NNS(=O)(=O)c2cccc(C(F)(F)F)c2)cc1 (stereo not drawn) [Compound 7, N′-(2-(4-isobutylphenyl)propanoyl)-3-(trifluoromethyl) benzene sulfonohydrazide]	> 100	36.1	
COc1ccc(-c2ccc(S(=O)(=O)NNC(=O)C(C)c3ccc(CC(C)C)cc3)cc2)cc1 (stereo not drawn) [Compound 12, N′-(2-(4-isobutylphenyl)propanoyl)-4′-methoxy-[1, 1′-biphenyl]-4sulfonohydrazide]	11.7	99	0.141
CC(C)Cc1ccc(C(C)C(=O)NNS(=O)(=O)c2ccc(C(F)(F)F)cc2)cc1 (stereo not drawn) [Compound 8, N′-(2-(4-isobutylphenyl)propanoyl)-4-(trifluoromethyl) benzene sulfonohydrazide]	40.1	74	1.2
CC(C)Cc1ccc(C(C)C(=O)NNS(=O)(=O)c2c(C(C)C)cc(C(C)C)cc2C(C)C)cc1 (stereo not drawn) [Compound 5, N′-(2-(4-isobutylphenyl)propanoyl)-2,4, 6 triisopropyl benzene sulfonohydrazide]	73	8.85	
CC(C)Cc1ccc(C(C)C(=O)NNS(=O)(=O)C(Br)c2ccccc2)cc1 (stereo not drawn) [Compound 6, 1-Bromo-N′-(2-(4-isobutylphenyl)propanoyl)-1-phenylmethane sulfonohydrazide]	> 100	20.6	
CC(=O)c1ccc(S(=O)(=O)NNC(=O)C(C)c2ccc(CC(C)C)cc2)cc1 (stereo not drawn) [Compound 1, 4-acetyl-N′-(2-(4-isobutylphenyl)propanoyl)benzenesulfonohydrazide]	> 100	33.6	
CC(C)Cc1ccc(C(C)C(=O)NNS(=O)(=O)c2ccccc2)cc1 (stereo not drawn) [Compound 9, N′-(2-(4-isobutylphenyl)propanoyl) benzenesulfonohydrazide]	46.4	99.9	0.144
CC(C)Cc1ccc(C(C)C(=O)NNS(=O)(=O)c2ccc(Br)cc2)cc1 (stereo not drawn) [Compound 13, 4-Bromo-N′-(2-(4-isobutylphenyl)propanoyl)benzenesulfonohydrazide]	> 100	48.7	
CC(C)Cc1ccc(C(C)C(=O)NNS(=O)(=O)c2ccc(-c3ccccc3)cc2)cc1 (stereo not drawn) [Compound 10, N′-(2-(4-isobutylphenyl)propanoyl)-[1, 1′-biphenyl]-4-sulfonohydrazide]	0.291	98.1	0.0056
Cc1ccc(S(=O)(=O)NNC(=O)C(C)c2ccc(CC(C)C)cc2)cc1 (stereo not drawn) [Compound 2, N′-(2-(4-isobutylphenyl)propanoyl)-4-methylbenzene sulfonohydrazide]	> 100	63.5	1.46
Cc1ccc(-c2ccc(S(=O)(=O)NNC(=O)C(C)c3ccc(CC(C)C)cc3)cc2)cc1 (stereo not drawn) [Compound 11, N′-(2-(4-isobutylphenyl)propanoyl)-4′-methyl-[1, 1′-biphenyl]-4-sulfonohydrazide]	16	95.3	0.072
CC(C)Cc1ccc(C(C)C(=O)NNS(=O)(=O)c2ccc3ccccc3c2)cc1 (stereo not drawn) [Compound 4, N′-(2-(4-isobutylphenyl)propanoyl)naphthalene-2-sulfonohydrazide]	53	87.8	0.179

Next, values leading:

IC50 (A549 NSCLC cell line) [µM]	inhibition at 10 µM (hFAAH) [%]	IC50 (hFAAH) [µM]	SMILES
> 100	44.2		CC(C)Cc1ccc(C(C)C(=O)NNS(=O)(=O)Cc2ccccc2)cc1 (stereo not drawn) [Compound 20, N′-(2-(4-isobutylphenyl)propanoyl)-1-phenylmethanesulfonohydrazide]
> 100	40.5		CC(C)Cc1ccc(C(C)C(=O)NNS(=O)(=O)c2ccc(C(F)(F)F)nc2)cc1 (stereo not drawn) [Compound 19, N′-(2-(4-isobutylphenyl)propanoyl)-6-(trifluoromethyl)pyridine-3sulfonohydrazide]
	10		CC(C)Cc1ccc(C(C)C(=O)O)cc1 (stereo not drawn) [Ibuprofen, reference compound]
> 100	86.5	0.672	CC(C)Cc1ccc(C(C)C(=O)NNS(=O)(=O)c2cccs2)cc1 (stereo not drawn) [Compound 15, N′-(2-(4-isobutylphenyl)propanoyl)thiophene-2-sulfonohydrazide]
> 100	7.44		Cc1ccc(S(=O)(=O)NNC(=O)C(C)c2ccc(CC(C)C)cc2)s1 (stereo not drawn) [Compound 17, N′-(2-(4-isobutylphenyl)propanoyl)-5-methylthiophene-2-sulfonohydrazide]
> 100	23.8		COc1ccc(S(=O)(=O)NNC(=O)C(C)c2ccc(CC(C)C)cc2)cc1OC (stereo not drawn) [Compound 14, N′-(2-(4-isobutylphenyl)propanoyl)-3,4-dimethoxybenzene sulfonohydrazide]
2.28			COc1cccc2c1C(=O)c1c(O)c3c(c(O)c1C2=O)C[C@@](O)(C(=O)CO)C[C@@H]3O[C@H]1C[C@H](N)[C@H](O)[C@H](C)O1 [Doxorubicin, reference compound]
> 100	28.4		CC(C)Cc1ccc(C(C)C(=O)NNS(=O)(=O)c2ccc(Br)s2)cc1 (stereo not drawn) [Compound 16, 5-Bromo-N′-(2-(4-isobutylphenyl)propanoyl) thiophene-2-sulfonohydrazide]
> 100	58.6	4.01	CC(C)Cc1ccc(C(C)C(=O)NNS(=O)(=O)c2cccnc2)cc1 (stereo not drawn) [Compound 18, N′-(2-(4-isobutylphenyl)propanoyl)pyridine-3-sulfonohydrazide]
